Results taken from publication PMC5453931, “Cathelicidin-trypsin inhibitor loop conjugate represents a promising antibiotic candidate with protease stability” (Scientific Reports, 2017).
≈ marks a conversion by molar mass, not a printed value. Like-named read-outs stand apart in the source and are kept apart here.

Key:
[1] = test system: E. coli 08040726; type: cell-based; settings: Gram-negative, two-fold broth microdilution, MH broth, 37 °C, 18 h, mean of three independent experiments in duplicates
Experimental: (§1) A two-fold broth microdilution method described in our previous paper was used to determine the antimicrobial activities of parental and hybrid peptides. More than 30 strains including Gram-negative bacteria, Gram-positive bacteria and fungi were used in the current assay, in which the standard strains were stored in our lab and the clinical strains were collected from local hospitals. Briefly, bacteria were incubated in Mueller-Hinton broth (MH broth) at 37 °C to exponential phase and diluted to 10^6 CFU/mL. A serial dilution of peptide sample were prepared in 96-well microtiter plates (50 μL) and mixed with equal volume of microbial inoculums (50 μL). The plate was slowly shaken in the microbial incubator, and measured at A595 after incubation at 37 °C for 18 h. The minimal concentrations at which no microbial growth occurred were recorded as MIC (minimal inhibitory concentration) values. The traditional antibiotic ampicillin was used as positive control. The results are shown in an average of the MICs obtained from three independent experiments.

[2] = test system: E. coli 08040726; assay: MIC, two-fold broth microdilution (second listing of the strain number); type: cell-based; settings: Gram-negative, MH broth, 37 °C, 18 h, mean of three independent experiments in duplicates
Experimental: as §1

[3] = test system: Aeromonas sobria; assay: microbe, parasite or virus in culture; type: cell-based; settings: Aeromonas sobria, 18 h, read-out: MIC Aeromonas sobria
Experimental: as §1

[4] = test system: Aeromonas veronii; assay: microbe, parasite or virus in culture; type: cell-based; settings: Aeromonas veronii, 18 h, read-out: MIC Aeromonas veronii
Experimental: as §1

[5] = test system: Bacillus subtilis 08042313; assay: microbe, parasite or virus in culture; type: cell-based; settings: Bacillus subtilis, 08042313, 18 h, read-out: MIC Bacillus subtilis 08042313
Experimental: as §1

[6] = test system: Candida albicans 08030102; assay: microbe, parasite or virus in culture; type: cell-based; settings: Candida albicans, 08030102, 18 h, read-out: MIC Candida albicans 08030102
Experimental: as §1

[7] = test system: Candida glabrata 08A802; assay: microbe, parasite or virus in culture; type: cell-based; settings: Nakaseomyces glabratus, 08A802, 18 h, read-out: MIC Candida glabrata 08A802
Experimental: as §1

[8] = test system: E. Coli 08032823; assay: microbe, parasite or virus in culture; type: cell-based; settings: Escherichia coli, 18 h, read-out: MIC E. Coli 08032823
Experimental: as §1

[9] = test system: Edwardsiella tarda; assay: microbe, parasite or virus in culture; type: cell-based; settings: Edwardsiella tarda, 18 h, read-out: MIC Edwardsiella tarda
Experimental: as §1

[10] = test system: Enterococcus faecium 08052315; assay: microbe, parasite or virus in culture; type: cell-based; settings: Enterococcus faecium, 08052315, 18 h, read-out: MIC Enterococcus faecium 08052315
Experimental: as §1

[11] = test system: Escherichia coli ATCC25922; assay: microbe, parasite or virus in culture; type: cell-based; settings: Escherichia coli, ATCC25922, 18 h, read-out: MIC Escherichia coli ATCC25922
Experimental: as §1

[12] = test system: K. Pneumoniae 08031012; assay: microbe, parasite or virus in culture; type: cell-based; settings: Klebsiella pneumoniae, 18 h, read-out: MIC K. Pneumoniae 08031012
Experimental: as §1

[13] = test system: K. Pneumoniae 08040202; assay: microbe, parasite or virus in culture; type: cell-based; settings: Klebsiella pneumoniae, 18 h, read-out: MIC K. Pneumoniae 08040202
Experimental: as §1

[14] = test system: Nocardia asteroides 08052412; assay: microbe, parasite or virus in culture; type: cell-based; settings: Nocardia asteroides, 08052412, 18 h, read-out: MIC Nocardia asteroides 08052412
Experimental: as §1

[15] = test system: P. Aeruginosa 08021015; assay: microbe, parasite or virus in culture; type: cell-based; settings: Pseudomonas aeruginosa, 18 h, read-out: MIC P. Aeruginosa 08021015
Experimental: as §1

[16] = test system: Proteus mirabilis 1376; assay: microbe, parasite or virus in culture; type: cell-based; settings: Proteus mirabilis, 1376, 18 h, read-out: MIC Proteus mirabilis 1376
Experimental: as §1

[17] = test system: S. Aureus 08032615; assay: microbe, parasite or virus in culture; type: cell-based; settings: Staphylococcus aureus, 18 h, read-out: MIC S. Aureus 08032615
Experimental: as §1

[18] = test system: S. Aureus 08032706; assay: microbe, parasite or virus in culture; type: cell-based; settings: Staphylococcus aureus, 18 h, read-out: MIC S. Aureus 08032706
Experimental: as §1

[19] = test system: S. Aureus 08032810; assay: microbe, parasite or virus in culture; type: cell-based; settings: Staphylococcus aureus, 18 h, read-out: MIC S. Aureus 08032810
Experimental: as §1

[20] = test system: S. Maltophilia 090223; assay: microbe, parasite or virus in culture; type: cell-based; settings: Stenotrophomonas maltophilia, 18 h, read-out: MIC S. Maltophilia 090223
Experimental: as §1

[21] = test system: Shigella dysenteriae 0804203; assay: microbe, parasite or virus in culture; type: cell-based; settings: Shigella dysenteriae, 0804203, 18 h, read-out: MIC Shigella dysenteriae 0804203
Experimental: as §1

[22] = test system: Vibrio brasiiensis; assay: microbe, parasite or virus in culture; type: cell-based; settings: Vibrio, 18 h, read-out: MIC Vibrio brasiiensis
Experimental: as §1

[23] = test system: Vibrio cholerae; assay: microbe, parasite or virus in culture; type: cell-based; settings: Vibrio cholerae, 18 h, read-out: MIC Vibrio cholerae
Experimental: as §1

[24] = test system: Vibrio harveyi; assay: microbe, parasite or virus in culture; type: cell-based; settings: Vibrio harveyi, 18 h, read-out: MIC Vibrio harveyi
Experimental: as §1

[25] = test system: E. Coli 08032813; assay: MIC, two-fold broth microdilution; type: cell-based; settings: Escherichia coli, 18 h, read-out: MIC E. Coli 08032813
Method in brief: (§2)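 Growth at A595 after 18 h at 37 °C defines the MIC, taken as the minimal peptide concentration giving no microbial growth. Organisms were grown to exponential phase in Mueller-Hinton broth and diluted to 10^6 CFU/mL prior to combining with an equal volume of peptide dilutions.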

[26] = test system: Staphylococcus epidermidis; assay: MIC, two-fold broth microdilution; type: cell-based; settings: Staphylococcus epidermidis, 18 h, read-out: MIC Staphylococcus epidermidis
Method in brief: as §2

[27] = test system: Vibrio Parahaemolyticus; assay: MIC, two-fold broth microdilution; type: cell-based; settings: Vibrio parahaemolyticus, 18 h, read-out: MIC Vibrio Parahaemolyticus
Method in brief: as §2

[28] = test system: 08030209; assay: microbe, parasite or virus in culture; type: cell-based, Arcyria cinerea; settings: Arcyria cinerea, 18 h, read-out: MIC Arcyria cinerea 08030209
Experimental: as §1

[29] = test system: E. coli 08040726; assay: Bacterial killing kinetic assay, colony counting; type: cell-based
Experimental: The bacterial killing kinetics of the hybrid peptides against E. coli 08040726 was determined by counting the changes in the viable bacterial clones after peptide treatment. The experiment was carried out according to the method described previously with minor modifications. Fresh colonies of the bacteria were incubated in MH broth at 37 °C for 12 h and diluted to 10^6 CFU/in fresh MH broth. The hybrid peptide was added to the bacterial suspension with a final concentration of 1x and 5x corresponding MICs, and incubated at 37 °C for 0, 10, 20, 30, 45, 60, 90, 120, and 180 mins. At each time point, aliquots (50 μL) were removed and diluted with fresh MH broth for 1000 times. […] of the dilutions were coated on MH agar plates, incubated overnight at 37 °C, and the viable colonies were counted. Ampicillin was used as positive control and sterile deionized water was used as negative control.

`CC1(C)S[C@@H]2[C@H](NC(=O)[C@H](N)c3ccccc3)C(=O)N2[C@H]1C(=O)O` [Ampicillin, reference compound] was tested, and the “MIC E. coli 08040726” value [1] was 9.38 µg/mL (≈ 26.8 µM), the “MIC E. coli 08040726” value ([1]; listed as ampicillin) was 0.12 µg/mL (≈ 0.343 µM) and the “MIC E. Coli 08040726 (second line with this strain number)” value [2] was “— (no detectable activity in MIC assay in dose of 200 µg/mL or in trypsin inhibition assay at concentration of 160 μg/mL)”. The MIC [3] was greater than 200 µg/mL, the MIC [4] was greater than 200 µg/mL and the MIC [5] was 75 µg/mL (≈ 215 µM). For the same compound, the MIC [6] was 18.8 µg/mL (≈ 53.7 µM), the MIC [7] was 18.8 µg/mL (≈ 53.7 µM) and the MIC [8] was greater than 200 µg/mL. It also gave an MIC [9] greater than 200 µg/mL, an MIC [10] greater than 200 µg/mL and an MIC [11] of 4.69 µg/mL (≈ 13.4 µM). It also gave an MIC [12] greater than 200 µg/mL, an MIC [13] greater than 200 µg/mL and an MIC [14] greater than 200 µg/mL. For the same compound, the MIC [15] was 9.38 µg/mL (≈ 26.8 µM), the MIC [16] was 75 µg/mL (≈ 215 µM) and the MIC [17] was 9.38 µg/mL (≈ 26.8 µM). The MIC [18] was 18.8 µg/mL (≈ 53.7 µM), the MIC [19] was greater than 200 µg/mL and the MIC [20] was greater than 200 µg/mL. For the same compound, the MIC [21] was 75 µg/mL (≈ 215 µM), the MIC [22] was greater than 200 µg/mL and the MIC [23] was greater than 200 µg/mL. It also gave an MIC [24] of 37.5 µg/mL (≈ 107 µM), an MIC [25] greater than 200 µg/mL and an MIC [26] greater than 200 µg/mL. For the same compound, the MIC [27] was 18.8 µg/mL (≈ 53.7 µM), the MIC [28] was greater than 200 µg/mL and the “time of killing toward E. coli” value ([29]; 1xMIC) was 6 h. The “time of killing toward E. coli” value ([29]; 5xMIC) was 3 h.
